Data: patent publication US20250115597A1, “TYK2 INHIBITORS AND COMPOSITIONS AND METHODS THEREOF” (LYNK PHARMACEUTICALS CO. LTD., priority 2021, published 2025)
One block for each compound: values may come before it.

Columns and labels:
TYK2-JH2 domain = target: T1, TYK2-JH2 domain (Homo sapiens, UniProt P29597); assay: Binding activity test for JH2 domain of TYK2 (Tb-antibody/tracer FRET); details: for JAK1/TYK2 selectivity: ratio JAK1-JH2 IC50 / TYK2-JH2 IC50
T1 construct: IC50 on JH2 domain activity (nM)
Method: (§1) Binding Activity Test for […] Domain of JAK1 and TYK2 The compounds are prepared in DMSO for 200× top dose, then serial dilute it with 27-fold for 3 more points. Add 8 μL/well in echo source plate, echo will add 75 nL/well with 3-fold serial dilution for 11 points in assay plate. 75 nL DMSO for high control and low control. […] For low control, add 5 μL/well assay buffer. And then spin down at 1000 rpm and centrifuge for 30 seconds. After enzyme system prepared, add 5 μL of Tb-antibody solution into each wells of assay plate. Spin down at 1000 rpm and centrifuge for 30 sec. After Tb-antibody added, also add 5 μL of tracer into the assay plate. Spin down at 1000 rpm and centrifuge for 30 sec. Incubate for 60 mins at 25° C. firstly and then continue to incubate the plate at 4° C. overnight. Read by envision in FRET mode. The Luminescence value was recorded by a multi-label reader Envision (PerkinElmer).

JAK1-JH2 domain = target: T2, JAK1-JH2 domain (Homo sapiens, UniProt P23458); assay: Binding activity test for JH2 domain of JAK1 (Tb-antibody/tracer FRET)
T2 construct: IC50 on JH2 domain activity (nM)
Method: as §1

[1] = target: T3, Ba/F3-FL-TYK2-P760L cells (Homo sapiens, UniProt P29597, P760L, cells depend on it); assay: Anti-proliferative assay, Ba/F3-FL-TYK2-P760L cells (Cell-Titer Glo); format: cell-based; details: 72 h, read-out: BaF3-FL-T2P760L IC50
T3 construct: BaF3-FL-T2P760L (nM)
Summary of the method: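 Ba/F3 cells made IL-3-independent by TEL-fused or full-length mutant JAK-family kinases, seeded at 2000/well and dosed after 24 h with 9 three-fold dilutions topping at 20 μM. Viability after 72 h at 37 °C, 5% CO2 by Cell-Titer Glo ATP luminescence.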

T1 sequence (P29597 589-875 limits assumed): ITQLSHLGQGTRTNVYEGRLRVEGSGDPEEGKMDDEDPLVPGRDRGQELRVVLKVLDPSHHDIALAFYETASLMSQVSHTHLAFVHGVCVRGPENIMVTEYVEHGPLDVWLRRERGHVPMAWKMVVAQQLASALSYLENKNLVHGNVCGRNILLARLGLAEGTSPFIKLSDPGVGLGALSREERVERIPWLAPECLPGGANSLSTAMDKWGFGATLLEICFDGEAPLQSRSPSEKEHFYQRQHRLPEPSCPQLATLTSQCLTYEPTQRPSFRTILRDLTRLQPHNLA
T2 sequence (P23458 583-855 limits assumed): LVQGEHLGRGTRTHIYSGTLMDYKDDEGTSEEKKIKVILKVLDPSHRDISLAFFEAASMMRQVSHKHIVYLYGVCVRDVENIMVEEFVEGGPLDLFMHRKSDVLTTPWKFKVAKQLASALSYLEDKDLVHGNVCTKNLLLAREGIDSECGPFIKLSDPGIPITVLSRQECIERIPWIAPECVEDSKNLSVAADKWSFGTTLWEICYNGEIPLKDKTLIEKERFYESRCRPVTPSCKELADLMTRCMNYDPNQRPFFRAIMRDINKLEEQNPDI
T3 sequence (P29597 whole entry P760L): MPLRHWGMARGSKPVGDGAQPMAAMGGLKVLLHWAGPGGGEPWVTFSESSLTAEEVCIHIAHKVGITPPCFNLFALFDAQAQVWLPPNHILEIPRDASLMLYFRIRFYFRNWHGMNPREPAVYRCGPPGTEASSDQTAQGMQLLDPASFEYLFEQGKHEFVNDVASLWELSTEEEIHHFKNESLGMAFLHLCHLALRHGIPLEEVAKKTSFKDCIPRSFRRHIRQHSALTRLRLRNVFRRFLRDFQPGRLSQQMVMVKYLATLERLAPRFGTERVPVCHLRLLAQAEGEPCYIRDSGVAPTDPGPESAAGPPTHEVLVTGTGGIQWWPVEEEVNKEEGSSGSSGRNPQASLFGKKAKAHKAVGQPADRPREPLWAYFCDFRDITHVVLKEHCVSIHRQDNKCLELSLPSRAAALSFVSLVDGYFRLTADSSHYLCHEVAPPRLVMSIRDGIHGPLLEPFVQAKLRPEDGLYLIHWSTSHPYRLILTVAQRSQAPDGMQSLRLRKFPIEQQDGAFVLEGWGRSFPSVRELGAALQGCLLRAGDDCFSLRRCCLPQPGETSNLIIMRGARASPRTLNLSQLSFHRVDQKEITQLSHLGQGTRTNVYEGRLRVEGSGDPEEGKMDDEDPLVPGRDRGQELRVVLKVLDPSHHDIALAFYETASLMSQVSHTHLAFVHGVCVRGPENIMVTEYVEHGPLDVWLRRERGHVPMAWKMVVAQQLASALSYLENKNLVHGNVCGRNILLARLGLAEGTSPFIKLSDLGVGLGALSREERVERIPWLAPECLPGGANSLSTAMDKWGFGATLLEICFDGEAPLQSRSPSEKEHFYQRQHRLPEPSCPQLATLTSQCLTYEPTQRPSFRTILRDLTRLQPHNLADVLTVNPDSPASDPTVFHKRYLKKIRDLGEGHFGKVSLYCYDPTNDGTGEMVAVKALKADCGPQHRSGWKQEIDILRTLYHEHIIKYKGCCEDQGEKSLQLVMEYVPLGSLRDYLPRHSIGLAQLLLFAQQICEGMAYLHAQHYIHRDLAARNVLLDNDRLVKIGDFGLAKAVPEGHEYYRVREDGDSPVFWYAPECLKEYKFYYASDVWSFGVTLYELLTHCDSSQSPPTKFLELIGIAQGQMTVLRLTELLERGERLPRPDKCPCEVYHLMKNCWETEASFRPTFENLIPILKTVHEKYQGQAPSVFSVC

SMILES: CCNC(=O)c1cnc(NC(=O)C2CC2)cc1Nc1ccc2cnn(CC)c2c1OC [Example 97, 6-(Cyclopropanecarboxamido)-N-ethyl-4-((1-ethyl-7-methoxy-1H-indazol-6-yl)amino)nicotinamide]
IC50 (TYK2-JH2 domain): 4.38 nM
IC50 (JAK1-JH2 domain): > 299 nM
GI50 [1]: 1270 nM

SMILES: [2H]C([2H])([2H])NC(=O)c1cnc(NC(=O)CC)cc1Nc1ccc2cnn(CC)c2c1OC [Example 229, 4-((1-Ethyl-7-methoxy-1H-indazol-6-yl)amino)-N-(methyl-d3)-6-propionamidonicotinamide]
IC50 (TYK2-JH2 domain): 1.68 nM
JAK1/TYK2 selectivity (TYK2-JH2 domain): 62.5
IC50 (JAK1-JH2 domain): 105 nM
GI50 [1]: 564 nM

SMILES: [2H]C([2H])([2H])NC(=O)c1cnc(NC(C)=O)cc1Nc1ccc2cnn(CC)c2c1OC [Example 230, 6-Acetamido-4-((1-ethyl-7-methoxy-1H-indazol-6-yl)amino)-N-(methyl-d3)nicotinamide]
IC50 (TYK2-JH2 domain): 3.01 nM
JAK1/TYK2 selectivity (TYK2-JH2 domain): 19.5
IC50 (JAK1-JH2 domain): 58.7 nM
GI50 [1]: 478 nM

SMILES: [2H]C([2H])([2H])NC(=O)c1cnc(NC(=O)C2CC(C)C2)cc1Nc1ccc2cnn(CC)c2c1OC (stereo not drawn) [Example 236, 4-((1-Ethyl-7-methoxy-1H-indazol-6-yl)amino)-N-(methyl-d3)-6-(3-methylcyclobutane-1-carboxamido)nicotinamide]
IC50 (TYK2-JH2 domain): 0.969 nM
JAK1/TYK2 selectivity (TYK2-JH2 domain): 45.2
IC50 (JAK1-JH2 domain): 43.8 nM
GI50 [1]: 892 nM

SMILES: [2H]C([2H])([2H])NC(=O)c1cnc(Nc2ccn(C)n2)cc1Nc1ccn2ncc(C#N)c2c1OC [Example 240, 4-((3-Cyano-4-methoxypyrazolo[1,5-a]pyridin-5-yl)amino)-N-(methyl-d3)-6-((1-methyl-1H-pyrazol-3-yl)amino)nicotinamide]
IC50 (TYK2-JH2 domain): 0.26 nM
JAK1/TYK2 selectivity (TYK2-JH2 domain): 19.5
IC50 (JAK1-JH2 domain): 5.07 nM
GI50 [1]: 70.7 nM

SMILES: CCn1ccc2c(c(Nc3cc(NC(=O)C4CC4)ncc3C(=O)NC)cn2C2CC2)c1=O [Example 245, 6-(Cyclopropanecarboxamido)-4-((1-cyclopropyl-5-ethyl-4-oxo-4,5-dihydro-1H-pyrrolo[3,2-c]pyridin-3-yl)amino)-N-methylnicotinamide]
IC50 (TYK2-JH2 domain): 0.157 nM
JAK1/TYK2 selectivity (TYK2-JH2 domain): 27.7
IC50 (JAK1-JH2 domain): 4.34 nM
GI50 [1]: 56.4 nM

SMILES: [2H]C([2H])([2H])NC(=O)c1cnc(NC(=O)C2CC2)cc1Nc1ccn2ncc(C3CC3)c2c1OC [Example 250, 6-(Cyclopropanecarboxamido)-4-((3-cyclopropyl-4-methoxypyrazolo[1,5-a]pyridin-5-yl)amino)-N-(methyl-d3)nicotinamide]
IC50 (TYK2-JH2 domain): 0.233 nM
JAK1/TYK2 selectivity (TYK2-JH2 domain): 30.19
IC50 (JAK1-JH2 domain): 7.04 nM
GI50 [1]: 160 nM

SMILES: [2H]C([2H])([2H])NC(=O)c1cnc(NC(=O)C2CC2)cc1Nc1ccn2ncc(C(C)C#N)c2c1OC (stereo not drawn) [Example 251, 4-((3-(1-Cyanoethyl)-4-methoxypyrazolo[1,5-a]pyridin-5-yl)amino)-6-(cyclopropanecarboxamido)-N-(methyl-d3)nicotinamide]
IC50 (TYK2-JH2 domain): 0.304 nM
JAK1/TYK2 selectivity (TYK2-JH2 domain): 18.32
IC50 (JAK1-JH2 domain): 5.57 nM
GI50 [1]: 117 nM

SMILES: [2H]C([2H])([2H])NC(=O)c1cnc(NC(=O)C2CC2)cc1Nc1ccn2ncc(C(C)C(N)=O)c2c1OC (stereo not drawn) [Example 252, 4-((3-(1-Amino-1-oxopropan-2-yl)-4-methoxypyrazolo[1,5-a]pyridin-5-yl)amino)-6-(cyclopropanecarboxamido)-N-(methyl-d3)nicotinamide]
IC50 (TYK2-JH2 domain): 1.68 nM
JAK1/TYK2 selectivity (TYK2-JH2 domain): 125.69
IC50 (JAK1-JH2 domain): 212 nM
GI50 [1]: > 5000 nM

SMILES: [2H]C([2H])([2H])NC(=O)c1cnc(NC(=O)C2CC2)cc1Nc1ccn2ncc(F)c2c1OC [Example 253, 6-(Cyclopropanecarboxamido)-4-((3-fluoro-4-methoxypyrazolo[1,5-a]pyridin-5-yl)amino)-N-(methyl-d3)nicotinamide]
IC50 (TYK2-JH2 domain): 0.783 nM
JAK1/TYK2 selectivity (TYK2-JH2 domain): 24.33
IC50 (JAK1-JH2 domain): 19 nM
GI50 [1]: 232 nM

SMILES: [2H]C([2H])([2H])NC(=O)c1cnc(NC(=O)C2CC2)cc1Nc1ccn2nccc2c1OC [Example 258, 6-(Cyclopropanecarboxamido)-4-((4-methoxypyrazolo[1,5-a]pyridin-5-yl)amino)-N-(methyl-d3)nicotinamide]
IC50 (TYK2-JH2 domain): 0.834 nM
JAK1/TYK2 selectivity (TYK2-JH2 domain): 17.9
IC50 (JAK1-JH2 domain): 14.9 nM
GI50 [1]: 205 nM

SMILES: [2H]C([2H])([2H])NC(=O)c1cnc(NC(=O)C2CC2)cc1Nc1ncc2ncn(CC)c2c1OC [Example 260, 6-(Cyclopropanecarboxamido)-4-((1-ethyl-7-methoxy-1H-imidazo[4,5-c]pyridin-6-yl)amino)-N-(methyl-d3)nicotinamide]
IC50 (TYK2-JH2 domain): 0.124 nM
JAK1/TYK2 selectivity (TYK2-JH2 domain): 78.9
IC50 (JAK1-JH2 domain): 9.78 nM
GI50 [1]: 143 nM

More lines, in order of falling IC50 (TYK2-JH2 domain), values ahead:

IC50 (TYK2-JH2 domain): 3.45 nM
JAK1/TYK2 selectivity (TYK2-JH2 domain): 37.7
IC50 (JAK1-JH2 domain): 130 nM
GI50 [1]: > 5000 nM
SMILES: [2H]C([2H])([2H])NC(=O)c1cnc(NC(=O)C2CC2)cc1Nc1ccn2ncc(CC(N)=O)c2c1OC [Example 243, 4-((3-(2-Amino-2-oxoethyl)-4-methoxypyrazolo[1,5-a]pyridin-5-yl)amino)-6-(cyclopropanecarboxamido)-N-(methyl-d3)nicotinamide]

IC50 (TYK2-JH2 domain): 1.18 nM
JAK1/TYK2 selectivity (TYK2-JH2 domain): 38.5
IC50 (JAK1-JH2 domain): 45.3 nM
GI50 [1]: 404 nM
SMILES: [2H]C([2H])([2H])NC(=O)c1cnc(NC(=O)C2CCC2)cc1Nc1ccc2cnn(CC)c2c1OC [Example 242, 6-(Cyclobutanecarboxamido)-4-((1-ethyl-7-methoxy-1H-indazol-6-yl)amino)-N-(methyl-d3)nicotinamide]

IC50 (TYK2-JH2 domain): 1.03 nM
JAK1/TYK2 selectivity (TYK2-JH2 domain): 94.03
IC50 (JAK1-JH2 domain): 97.2 nM
GI50 [1]: 541 nM
SMILES: [2H]C([2H])([2H])NC(=O)c1cnc(NC(=O)C2CC2)cc1Nc1ccn2ncc(C(C)C#N)c2c1OC (single isomer, unassigned) [Example 251A, (R*)-4-((3-(1-cyanoethyl)-4-methoxypyrazolo[1,5-a]pyridin-5-yl)amino)-6-(cyclopropanecarboxamido)-N-(methyl-d3)nicotinamide]

IC50 (TYK2-JH2 domain): 0.449 nM
JAK1/TYK2 selectivity (TYK2-JH2 domain): 60.2
IC50 (JAK1-JH2 domain): 27 nM
GI50 [1]: 118 nM
SMILES: [2H]C([2H])([2H])NC(=O)c1cnc(NC(=O)C2CC2)cc1Nc1ncc2cnn(CCC(F)(F)F)c2c1OC [Example 275, 6-(Cyclopropanecarboxamido)-4-((7-methoxy-1-(3,3,3-trifluoropropyl)-1H-pyrazolo[4,3-c]pyridin-6-yl)amino)-N-(methyl-d3)nicotinamide]

IC50 (TYK2-JH2 domain): 0.323 nM
JAK1/TYK2 selectivity (TYK2-JH2 domain): 13.7
IC50 (JAK1-JH2 domain): 4.42 nM
GI50 [1]: 116 nM
SMILES: [2H]C([2H])([2H])NC(=O)c1cnc(Nc2ccn(C)n2)cc1Nc1ccn2ncc(C)c2c1OC [Example 255, 4-((4-Methoxy-3-methylpyrazolo[1,5-a]pyridin-5-yl)amino)-N-(methyl-d3)-6-((1-methyl-1H-pyrazol-3-yl)amino)nicotinamide]

IC50 (TYK2-JH2 domain): 0.266 nM
JAK1/TYK2 selectivity (TYK2-JH2 domain): 17.30
IC50 (JAK1-JH2 domain): 4.6 nM
GI50 [1]: 103 nM
SMILES: [2H]C([2H])([2H])NC(=O)c1cnc(NC(=O)C2CC2)cc1Nc1ccn2ncc(C(C)C#N)c2c1OC (single isomer, unassigned) [Example 251B, (S*)-4-((3-(1-cyanoethyl)-4-methoxypyrazolo[1,5-a]pyridin-5-yl)amino)-6-(cyclopropanecarboxamido)-N-(methyl-d3)nicotinamide]

IC50 (TYK2-JH2 domain): 0.248 nM
JAK1/TYK2 selectivity (TYK2-JH2 domain): 140.1
IC50 (JAK1-JH2 domain): 34.7 nM
GI50 [1]: 64.6 nM
SMILES: [2H]C([2H])([2H])NC(=O)c1cnc(NC(=O)C2CC2)cc1Nc1nn(CCC)c2ccn(CC(F)(F)F)c(=O)c12 [Example 208, 6-(Cyclopropanecarboxamido)-N-(methyl-d3)-4-((4-oxo-1-propyl-5-(2,2,2-trifluoroethyl)-4,5-dihydro-1H-pyrazolo[4,3-c]pyridin-3-yl)amino)nicotinamide]

IC50 (TYK2-JH2 domain): 0.181 nM
JAK1/TYK2 selectivity (TYK2-JH2 domain): 51.1
IC50 (JAK1-JH2 domain): 9.25 nM
GI50 [1]: 227 nM
SMILES: [2H]C([2H])([2H])NC(=O)c1cnc(NC(=O)C2CC2)cc1Nc1ncc2cnn(C3CC3)c2c1OC [Example 267, 6-(Cyclopropanecarboxamido)-4-((1-cyclopropyl-7-methoxy-1H-pyrazolo[4,3-c]pyridin-6-yl)amino)-N-(methyl-d3)nicotinamide]

IC50 (TYK2-JH2 domain): 0.166 nM
JAK1/TYK2 selectivity (TYK2-JH2 domain): 16.1
IC50 (JAK1-JH2 domain): 2.68 nM
GI50 [1]: 28.4 nM
SMILES: [2H]C([2H])([2H])NC(=O)c1cnc(Nc2ccc(N3CCOCC3)cn2)cc1Nc1ccc2cnn(CC)c2c1OC [Example 273, 4-((1-Ethyl-7-methoxy-1H-indazol-6-yl)amino)-N-(methyl-d3)-6-((5-morpholinopyridin-2-yl)amino)nicotinamide]

IC50 (TYK2-JH2 domain): 0.158 nM
JAK1/TYK2 selectivity (TYK2-JH2 domain): 70.8
IC50 (JAK1-JH2 domain): 11.2 nM
GI50 [1]: 52.6 nM
SMILES: [2H]C([2H])([2H])NC(=O)c1cnc(NC(=O)C2CC2)cc1Nc1cn(CC(F)(F)F)c2ccn(CC)c(=O)c12 [Example 209, 6-(Cyclopropanecarboxamido)-4-((5-ethyl-4-oxo-1-(2,2,2-trifluoroethyl)-4,5-dihydro-1H-pyrrolo[3,2-c]pyridin-3-yl)amino)-N-(methyl-d3)nicotinamide]
